Data taken from patent US12569468B2, “Use of palovarotene in treatment against HBV virus” (YANG SHENG TANG COMPANY, LTD., priority 2020, dated 2026).

What was measured:
HBV cccDNA [1] = experiment: Southern blot detection of HBV cccDNA in HepAD38; format: cell-based, hepatitis B virus; settings: 5 μM, 8 days, inhibitory effect inferior to that of control group (ETV 5 μM)
Experimental: The Southern blot experiment was performed on 6 cm^2 culture plates. About 4.2×10^6 HepAD38 cells were plated in each 6 cm^2 culture plate, and medium G containing tetracycline hydrochloride (Tetracycline) was added. During the experiment, the medium G containing tetracycline hydrochloride was removed, and the drug-containing medium F was added at the same time for drug treatment, in which the treatment concentration of test drug Palovarotene was 5 μM, and the control group used Entecavir (ETV) at a concentration of 5 μM for treatment, and the treatment time was 8 days.
The specific Southern blot detection method was carried out with reference to Example 3.

HepG2 hNTCP 2B1 = experiment: Safety assessment, CCK-8 cell activity, HepG2-hNTCP 2B1; format: cell-based; settings: 1 μM, 5 μM and 25 μM, 6 days treatment
Experimental: This experiment was carried out in a 96-well culture plate, with 8×10^4 corresponding cells plated in each well, and the corresponding medium volume was 100 μL, in which each drug to be tested in the HepG2-hNTCP 2B1, HepaRG M14A and primary hepatocyte experimental groups had three final concentrations of 1 μM, 5 μM and 25 μM, each drug to be tested in the HepAD38 cell experimental group had two final concentrations of 1 μM and 5 μM (the drug was diluted with the corresponding medium to the final concentrations, specifically please refer to Example 1, Example 2, Example 4 and Example 5), and to the blank group the same volume of culture medium without drug was added. After the cells had grown to a suitable density, drug was added to perform treatment for 6 days, during which, the medium was changed every two days with fresh drug-containing medium. After the drug treatment, 110 μL of medium containing Beyotime CCK-8 cell activity detection reagent (purchased from Beyotime, Art. No. C0038) (the volume ratio of medium to CCK-8 reagent was 100:10) was used for replacement, the cells were incubated at 37° C. for 30 min, and then all the supernatant was collected for detection of absorbance. The absorbance value was read on PHOMO microplate reader purchased from Zhengzhou Autobio.

HBV = experiment: Therapeutic effect in high copy replication model HepAD38; format: cell-based, hepatitis B virus; settings: 5 μM
Source text: HepAD38 is a hepatoma cell line (D genotype) that stably integrates the HBV genome, it expresses HBV under conditions that may be regulated with tetracycline. […] The HepAD38 has a DNA level about 10 times that of HepG2.2.15, and thus is a high-copy HBV in vitro replication cell model (for the construction method of this cell model, please refer to: Ladner S K, Otto M J, Barker C S, et al. Inducible expression of human hepatitis B virus (HBV) in stably transfected hepatoblastoma cells: a novel system for screening potential inhibitors of HBV replication. Antimicrob Agents Chemother. 1997; 41(8):1715-1720.).
This experiment was carried out in a 24-well culture plate. […] About 4×10^5HepAD38 cells were plated in each well, 500 μL of medium G containing tetracycline hydrochloride (Tetracycline) was added to each well, Day 0 was set 48 h after the cells were plated, and the medium G containing tetracycline hydrochloride (Tetracycline) was removed at the same time, fresh drug-containing medium F was used for replacement, and then fresh drug-containing medium F was used for replacement every two days until the 8th day, and the levels of HBsAg in the cell supernatant and intracellular HBV DNA were detected on the 8th day. For the method for detection, please refer to Example 1.

HBV cccDNA [2] = experiment: Southern blot detection of HBV cccDNA in infected HepG2-hNTCP 2B1; format: cell-based, hepatitis B virus; settings: 5 μM, day 6 to day 12 after infection, compared with interferon IFNα 500 IU control group and blank group
Experimental: Southern blot experiment was carried out on a 10 cm^2 culture plate. About 5×10^6 HepG2-hNTCP 2B1 cells were plated in each 10 cm^2 culture plate, and medium B was added. After the cells adhered, medium A was used for replacement to perform the induction with Doxycycline during the whole experiment. HBV infection was performed 4 days after the induction with Doxycycline, and the amount of HBV for infection was 1000 MOI. Before infection, HBV was diluted in medium C to obtain HBV solution, and the infection volume was 5 mL. During infection, the cell supernatant was first removed by suction, the HBV solution was added to the cells, the cells were incubated for 24 hours, then the supernatant was collected as the sample of Day 0. Then the cells were washed three times with PBS, and fresh medium A was used for replacement. After that, the supernatant was collected every two days for detection, fresh medium A was used for replacement. […]

Compound: CC1(C)CCC(C)(C)c2cc(Cn3cccn3)c(/C=C/c3ccc(C(=O)O)cc3)cc21 [Palovarotene]
- level of HBV cccDNA (Southern blot) (HBV cccDNA [1]): significantly inhibit
- CCK-8 absorbance value (cell activity) vs blank group (HepG2 hNTCP 2B1): not significantly different
- surface antigen production (HBsAg in cell supernatant) (HBV; day 8, p<0.01): significant inhibitory effect
- HBV DNA (intracellular) (HBV; day 8, p<0.05): significant inhibitory effect
- level of HBV cccDNA (Southern blot) (HBV cccDNA [2]): significantly lower
